The results in this text go back to patent US11753397B2, “Cereblon binders for the degradation of ikaros” (C4 Therapeutics, Inc., priority 2018, dated 2023).

The test concerns NCIH929.1 cells. In words: Cell viability assay (CellTiter-Glo 2.0, ATP quantification). The test is classed as cell-based. The note with it: NCIH929.1 cell viability, CellTiter-Glo 2.0, 96 hr incubation, top concentration 1 μM. On the procedure:
Example 59. Cell Viability Assay
RPMI 1640 medium, fetal bovine serum (FBS) and 2-mercaptoethanol were purchased from Gibco (Grand Island, N.Y., USA). CellTiter-Glo® 2.0 Assay was purchased from Promega (Madison, Wis., USA). NCIH929.1 cell line was purchased from ATCC (Manassas, Va., USA). Cell culture flasks and 384-well microplates were acquired from VWR (Radnor, Pa., USA).
NCIH929.1 cell viability was determined based on quantification of ATP using CellTiter-Glo® 2.0 luminescent Assay kit, which signals the presence of metabolically-active cells. Briefly, the test compound was added to 384-well plates at a top concentration of 1 μM with 10 points, half log titration in duplicates. NCIH929.1 cells were seeded into the 384-well plates in RPMI medium containing 10% FBS and 0.05 mM 2-mercaptoethanol at a cell density of 750 cells per well. Cells treated in the absence of the test compound were the negative control and cells treated in the absence of CellTiter-Glo® 2.0 were the positive control. At the same day of compound treatment, CellTiter-Glo® 2.0 was added to a plate with cells treated in the absence of the test compound to establish Cytostatic control value (CT0). Cells treated with the test compound were incubated at 37° C. with 5% CO2 for 96 hr. CellTiter-Glo reagent was then added to the cells and luminescence was acquired on EnVision™ Multilabel Reader (PerkinElmer, Santa Clara, Calif., USA).
A general note: Cellular ATP, detected with luciferase, serves as a proxy for viable cell number.
By GI50 is commonly meant the concentration giving 50% growth inhibition. Read a low GI50 as greater sensitivity of the cells. `O=C1CCC(N2C(=O)c3cccc(NCc4cnn(C5CCN(C(=O)CC6CCOCC6)CC5)c4)c3C2=O)C(=O)N1` (stereo not shown) [Compound 28, 2-(2,6-dioxopiperidin-3-yl)-4-(((1-(1-(2-(tetrahydro-2H-pyrazin-4-yl)acetyl)piperidin-4-yl)-1H-pyrazol-4-yl)methyl)amino)isoindoline-1,3-dione] came in with a GI50 of less than 100 nM. To `O=C1CCC(N2C(=O)c3cccc(NCc4cnn(C5CCN(C(=O)C6CC(F)(F)C6)CC5)c4)c3C2=O)C(=O)N1` (stereo not shown) [Compound 29, 4-(((1-(1-(3,3-difluorocyclobutane-1-carbonyl)piperidin-4-yl)-1H-pyrazol-4-yl)methyl)amino)-2-(2,6-dioxopiperidin-3-yl)isoindoline-1,3-dione] belongs less than 100 nM; to `O=C1CCC(N2C(=O)c3cccc(NCc4cnn(C5CCN(C(=O)CCC(F)(F)F)CC5)c4)c3C2=O)C(=O)N1` (stereo not shown) [Compound 30, 2-(2,6-dioxopiperidin-3-yl)-4-(((1-(1-(4,4,4-trifluorobutanoyl)piperidin-4-yl)-1H-pyrazol-4-yl)methyl)amino)isoindoline-1,3-dione], less than 100 nM. The result for `COCC(=O)N1CCC(n2cc(CNc3cccc4c3C(=O)N(C3CCC(=O)NC3=O)C4=O)cn2)CC1` (stereo not shown) [Compound 31, 2-(2,6-dioxopiperidin-3-yl)-4-(((1-(1-(2-methoxyacetyl)piperidin-4-yl)-1H-pyrazol-4-yl)methyl)amino)isoindoline-1,3-dione] reads less than 100 nM; that for `O=C1CCC(N2C(=O)c3cccc(NCc4cnn(C5CCN(C(=O)C6CCCC6)CC5)c4)c3C2=O)C(=O)N1` (stereo not shown) [Compound 32, 4-(((1-(1-(cyclopentanecarbonyl)piperidin-4-yl)-1H-pyrazol-4-yl)methyl)amino)-2-(2,6-dioxopiperidin-3-yl)isoindoline-1,3-dione], less than 100 nM; that for `CC1(C(=O)N2CCC(n3cc(CNc4cccc5c4C(=O)N(C4CCC(=O)NC4=O)C5=O)cn3)CC2)CCC1` (stereo not shown) [Compound 33, 2-(2,6-dioxopiperidin-3-yl)-4-(((1-(1-(1-methylcyclobutane-1-carbonyl)piperidin-4-yl)-1H-pyrazol-4-yl)methyl)amino)isoindoline-1,3-dione], less than 1 nM. `Cn1cc(C(=O)N2CCC(n3cc(CNc4cccc5c4C(=O)N(C4CCC(=O)NC4=O)C5=O)cn3)CC2)cn1` (stereo not shown) [Compound 34, 2-(2,6-dioxopiperidin-3-yl)-4-(((1-(1-(1-methyl-1H-pyrazole-4-carbonyl)piperidin-4-yl)-1H-pyrazol-4-yl)methyl)amino)isoindoline-1,3-dione] showed a GI50 of less than 100 nM. The result for `CCCC(=O)N1CCC(n2cc(CNc3cccc4c3C(=O)N(C3CCC(=O)NC3=O)C4=O)cn2)CC1` (stereo not shown) [Compound 35, 4-(((1-(1-butyrylpiperidin-4-yl)-1H-pyrazol-4-yl)methyl)amino)-2-(2,6-dioxopiperidin-3-yl)isoindoline-1,3-dione] reads less than 100 nM; that for `CC1(C(=O)N2CCC(n3cc(CNc4cccc5c4C(=O)N(C4CCC(=O)NC4=O)C5=O)cn3)CC2)CC1` (stereo not shown) [Compound 36, 2-(2,6-dioxopiperidin-3-yl)-4-(((1-(1-(1-methylcyclopropane-1-carbonyl)piperidin-4-yl)-1H-pyrazol-4-yl)methyl)amino)isoindoline-1,3-dione], less than 100 nM. To `CN(C)CC(=O)N1CCC(n2cc(CNc3cccc4c3C(=O)N(C3CCC(=O)NC3=O)C4=O)cn2)CC1` (stereo not shown) [Compound 37, 4-(((1-(1-(dimethylglycyl)piperidin-4-yl)-1H-pyrazol-4-yl)methyl)amino)-2-(2,6-dioxopiperidin-3-yl)isoindoline-1,3-dione] belongs less than 100 nM; to `O=C1CCC(N2C(=O)c3cccc(NCc4cnn(C5CCN(C(=O)[C@H]6CCCO6)CC5)c4)c3C2=O)C(=O)N1` (stereo partly drawn) [Compound 38, 2-(2,6-dioxopiperidin-3-yl)-4-(((1-(1-((R)-tetrahydrofuran-2-carbonyl)piperidin-4-yl)-1H-pyrazol-4-yl)methyl)amino)isoindoline-1,3-dione], less than 100 nM. To `O=C1CCC(N2C(=O)c3cccc(NCc4cnn(C5CCN(C(=O)c6cc(C7CC7)on6)CC5)c4)c3C2=O)C(=O)N1` (stereo not shown) [Compound 39, 4-(((1-(1-(5-cyclopropylisoxazole-3-carbonyl)piperidin-4-yl)-1H-pyrazol-4-yl)methyl)amino)-2-(2,6-dioxopiperidin-3-yl)isoindoline-1,3-dione] belongs less than 100 nM; to `CCCCC(=O)N1CCC(n2cc(CNc3cccc4c3C(=O)N(C3CCC(=O)NC3=O)C4=O)cn2)CC1` (stereo not shown) [Compound 40, 2-(2,6-dioxopiperidin-3-yl)-4-(((1-(1-pentanoylpiperidin-4-yl)-1H-pyrazol-4-yl)methyl)amino)isoindoline-1,3-dione], less than 100 nM; to `CC(C)OCC(=O)N1CCC(n2cc(CNc3cccc4c3C(=O)N(C3CCC(=O)NC3=O)C4=O)cn2)CC1` (stereo not shown) [Compound 41, 2-(2,6-dioxopiperidin-3-yl)-4-(((1-(1-(2-isopropoxyacetyl)piperidin-4-yl)-1H-pyrazol-4-yl)methyl)amino)-isoindoline-1,3-dione], less than 100 nM. Compound `O=C1CCC(N2C(=O)c3cccc(NCc4cnn(C5CCN(C(=O)C6CCCOC6)CC5)c4)c3C2=O)C(=O)N1` (stereo not shown) [Compound 42, 2-(2,6-dioxopiperidin-3-yl)-4-(((1-(1-(tetrahydro-2H-pyran-3-carbonyl)piperidin-4-yl)-1H-pyrazol-4-yl)methyl)amino)isoindoline-1,3-dione] registered a GI50 of less than 100 nM. To `O=C1CCC(N2C(=O)c3cccc(NCc4cnn(C5CCN(C(=O)CN6CCOCC6)CC5)c4)c3C2=O)C(=O)N1` (stereo not shown) [Compound 43, 2-(2,6-dioxopiperidin-3-yl)-4-(((1-(1-(2-morpholinoacetyl)piperidin-4-yl)-1H-pyrazol-4-yl)methyl)amino)isoindoline-1,3-dione] belongs less than 100 nM.

Turning to `O=C1CCC(N2C(=O)c3cccc(NCc4cnn(C5CCN(C(=O)C67CC8CC(CC(C8)C6)C7)CC5)c4)c3C2=O)C(=O)N1` (stereo not shown) [Compound 44, 4-(((1-(1-(adamantane-1-carbonyl)piperidin-4-yl)-1H-pyrazol-4-yl)methyl)amino)-2-(2,6-dioxopiperidin-3-yl)isoindoline-1,3-dione], the GI50 is less than 1 nM. To `CC1CC1C(=O)N1CCC(n2cc(CNc3cccc4c3C(=O)N(C3CCC(=O)NC3=O)C4=O)cn2)CC1` (stereo not shown) [Compound 45, 2-(2,6-dioxopiperidin-3-yl)-4-(((1-(1-(2-methylcyclopropane-1-carbonyl)piperidin-4-yl)-1H-pyrazol-4-yl)methyl)amino)isondoline-1,3-dione] belongs less than 100 nM; to `CC(C)(O)CC(=O)N1CCC(n2cc(CNc3cccc4c3C(=O)N(C3CCC(=O)NC3=O)C4=O)cn2)CC1` (stereo not shown) [Compound 46, 2-(2,6-dioxopiperidin-3-yl)-4-(((1-(1-(3-hydroxy-3-methylbutanoyl)piperidin-4-yl)-1H-pyrazol-4-yl)methyl)amino)isoindoline-1,3-dione], less than 100 nM; to `O=C1CCC(N2C(=O)c3cccc(NCc4cnn(C5CCN(C(=O)CC67CC8CC(CC(C8)C6)C7)CC5)c4)c3C2=O)C(=O)N1` (stereo not shown) [Compound 47, 4-(((1-(1-(2-(adamantan-1-yl)acetyl)piperidin-4-yl)-1H-pyrazol-4-yl)methyl)amino)-2-(2,6-dioxopiperidin-3-yl)isoindoline-1,3-dione], less than 1 nM. The result for `C[C@@H](C(=O)N1CCC(n2cc(CNc3cccc4c3C(=O)N(C3CCC(=O)NC3=O)C4=O)cn2)CC1)c1ccccc1` (stereo partly drawn) [Compound 48, 2-(2,6-dioxopiperidin-3-yl)-4-(((1-(1-((R)-2-phenylpropanoyl)piperidin-4-yl)-1H-pyrazol-4-yl)methyl)amino)isoindoline-1,3-dione] reads less than 100 nM. The result for `CC(C)CC(=O)N1CCC(n2cc(CNc3cccc4c3C(=O)N(C3CCC(=O)NC3=O)C4=O)cn2)CC1` (stereo not shown) [Compound 49, 2-(2,6-dioxopiperidin-3-yl)-4-(((1-(1-(3-methylbutanoyl)piperidin-4-yl)-1H-pyrazol-4-yl)methyl)amino)isoindoline-1,3-dione] reads less than 100 nM; that for `CC(C)(N)C(=O)N1CCC(n2cc(CNc3cccc4c3C(=O)N(C3CCC(=O)NC3=O)C4=O)cn2)CC1` (stereo not shown) [Compound 50, 4-(((1-(1-(2-amino-2-methylopropanoyl)piperidin-4-yl)-1H-pyrazol-4-yl)methyl)amino)-2-(2,6-dioxopiperidin-3-yl)isoindoline-1,3-dione], less than 100 nM; that for `C[C@H](C(=O)N1CCC(n2cc(CNc3cccc4c3C(=O)N(C3CCC(=O)NC3=O)C4=O)cn2)CC1)c1ccccc1` (stereo partly drawn) [Compound 51, 2-(2,6-dioxopiperidin-3-yl)-4-(((1-(1-((S)-2-phenylpropanoyl)piperidin-4-yl)-1H-pyrazol-4-yl)methyl)amino)isoindoline-1,3-dione], less than 100 nM. `CC(C)(O)C(=O)N1CCC(n2cc(CNc3cccc4c3C(=O)N(C3CCC(=O)NC3=O)C4=O)cn2)CC1` (stereo not shown) [Compound 52, 2-(2,6-dioxopiperidin-3-yl)-4-(((1-(1-(2-hydroxy-2-methylpropanoyl)piperidin-4-yl)-1H-pyrazol-4-yl)methyl)amino)isoindoline-1,3-dione] showed a GI50 of less than 100 nM.
